Test results taken from patent US8344146B2, “Inhibitor of DD-peptidase and its use as antibiotic or anticancer drug” (Narodowy Instytut Zdrowia Publicznego-Panstwowy Zaklad …, priority 2007, dated 2013).
Converted amounts (≈) assume the structure as drawn.

How the values were obtained:
[1] = biological target: T1, DD-peptidase R61 (Streptomyces sp., UniProt P15555); test: DD-peptidase R61 activity inhibition (ID50); type: biochemical; conditions: DD-peptidase R61, purified inhibitor; read-out: ID50 (M), molar concentration of inhibitor which inhibits 50% of enzyme activity
T1 construct: DD-peptidase R61 produced by Streptomyces sp; R61; gift: Prof; Jean-Maria Ghuysen; host or cells: Streptomyces sp; R61 (natural producer)

[2] = biological target: T1, DD-peptidase R61; test: Life of the inhibitor-enzyme complex, R61; type: biochemical, Streptomyces sp. R61
Experimental: (§1) The Life of the Inhibitor-Enzyme Complex was Also Determined.
(§2) The incubation was performed from several to several dozen hours of each enzyme and inhibitor (as described above). Next, the reaction mixture was added, and determinations were performed.

[3] = biological target: T2, DD-peptidase R39 (Actinomadura sp., UniProt P39045); test: Life of the inhibitor-enzyme complex, R39; type: biochemical, Actinomadura sp. R39
T2 construct: extracellular DD-peptidase R39 produced by Actinomadura sp; R39; gift: Prof; Jean-Maria Ghuysen; host or cells: Actinomadura sp; R39 (natural producer, secreted)
Experimental: as §1, §2

[4] = test system: class A β-lactamase (penicillinase, Penase); test: β-lactamase inhibitor activity, nitrocefin method; type: biochemical; conditions: 482 nm, 30 min preincubation at 37° C.
Experimental: Determination of β-Lactamase Inhibitor Activity Using the Nitrocefin Method (O'Callaghan et al. 1972)^2.
reagents used in the assay: 0.1 mM nitrocefin solution containing 0.5 mg nitrocefin (Glaxo), 0.5 cm^3 DMSO (Fluka), 9.5 cm^3 0.1 M PBS pH 7.0; class A β-lactamase (penicillinase, Penase, 5×10^6 IU/ml, Bacto).
20 mm^3 of the examined inhibitor in 0.1 M PBS pH 7.0 were supplemented with 10 mm^3 β-lactamase, incubated for 30 min. at 37° C. Next, 30 mm^3 of 0.1 mM nitrocefin solution were added, and 430 mm^3 of 0.1M PBS pH 7.0. The samples were incubated for 10 min. at 37° C. and evaluated spectrophotometrically at 482 nm. The molar extinction coefficient was 15000 M^−1·cm^−1.

[5] = test system: Stenotrophomonas maltophilia ATCC 13637; test: Spot-diffusion method, growth inhibition zones; type: cell-based; conditions: ATCC13637, 0.4 mg inhibitor per disc
Experimental: (§3) Inhibitor activity was also determined using the spot-diffusion method.
(§4) The analysis was performed using: Proteus vulgaris NCTC 4635, Bordetella bronchiseptica ATCC 4617, Stenotrophomonas maltophilia ATCC 13637. 24 bacterial cultures were used to make suspensions containing 0.2 McF, which was then diluted 100-fold. 0.1 ml of such a mixture was then placed on a dish with Muller-Hinton medium. Discs containing the examined inhibitor fractions were placed and incubated at 35° C. The determinations were carried out at 15 and 18 hours.
(§5) The following growth inhibition zones were obtained using 0.4 mg inhibitor per disc: […]

[6] = test system: Bordetella bronchiseptica ATCC 4617; test: Spot-diffusion method, growth inhibition zones; type: cell-based; conditions: ATCC4617, 0.4 mg inhibitor per disc
Experimental: as §3, §4, §5

[7] = test system: Proteus vulgaris NCTC 4635; test: Spot-diffusion method, growth inhibition zones; type: cell-based; conditions: NCTC4635, 0.4 mg inhibitor per disc
Experimental: as §3, §4, §5

[8] = biological target: T2, DD-peptidase R39; test: DD-peptidase R39 activity inhibition (ID50); type: biochemical; conditions: DD-peptidase R39, purified inhibitor; read-out: ID50 (M), molar concentration of inhibitor which inhibits 50% of enzyme activity
[9] = test system: β-lactamase; test: Inhibitor stability in a β-lactamase environment; type: biochemical
Experimental: Determination of Inhibitor Stability in a β-Lactamase Environment.
A method of evaluation inhibitor stability was designed using a combination of the above two methods. An initial incubation of the inhibitor with β-lactamase was performed, and then the reagents for determining DD-peptidase activity inhibition were added. The absorbance of the experimental sample was 0.05, whereas for the control sample (DD-peptidase) it was 0.35. […] It is not hydrolysed by β-lactamase.

[10] = test system: Candida albicans ATCC 10231; test: Antifungal activity analysis, disc on Sabourand medium; type: cell-based; conditions: discs with 1 mg, 35° C. for 24 h; inhibitor fractions following stage 2 of purification
Experimental: A Petri dish with solid Sabourand medium with 4% glucose was inoculated with a Candida albicans ATCC 10231 suspension, at 0.02 McF density. Tissue discs soaked in the inhibitor solution were then placed on the medium (1 mg). The incubation was performed at 35° C. for 24 h.

[11] = Inhibitor characteristics: solubility; type: physicochemical
Source text: • 1.) Solid yellow in colour. • 2.) Solubility. The inhibitor is soluble in PBS pH 7.2-8.0; soluble in an aqueous environment with low levels of K^+, Na^+. It also dissolves in methanol, DMSO, but degrades in these solvents.

[12] = test system: Acinetobacter baumanii ATCC 19606; test: MIC, serial dilutions on solid media; type: cell-based; conditions: Acinetobacter baumannii, ATCC19606, MH II agar, 16 hours at 35° C., inhibitor fractions purified on ion-exchange column
Experimental: (§6) The antibacterial activity of the compound in question was determined using serial dilutions on solid media (MIC value determination) and using the spot-diffusion protocol. […] Standard bacterial strains used in the analysis:
(§7) A Petri dish was loaded with 0.25 ml of the sample in water and topped with MH II agar medium (Muller Hinton II) to 5 ml. The antibiotic concentration was 0.2 mg/ml medium. Additionally, a control without the antibiotic was made containing 5 ml of MH II. Using a densitometer, bacterial suspensions were made in NaCl solution containing 0.5 McF (10^8 CFU/ml), and subsequently dilutions thereof were made.
(§8) The following dilution series was made: • 10^4 CFU/ml NaCl for strains 6, 7, 8, 9 • 10^5 CFU/ml Nan for strains 1, 2, 3, 4, 5, 10, 11
(§9) After the medium set, 2 μl of bacterial suspension of each strain was inoculated onto the medium yielding 10^2 CFU/ml for strains 6, 7, 8, 9 and 10^3 CFU/ml for strains 1, 2, 3, 4, 5, 10, 11. Each suspension was loaded onto each plate. the incubation was performed for 16 hours at 35° C.

[13] = test system: Stenotrophomonas maltophilia ATCC 13637; test: MIC, serial dilutions on solid media; type: cell-based; conditions: ATCC13637, MH II agar, 16 hours at 35° C., inhibitor fractions purified on ion-exchange column
Experimental: as §6, §7, §8, §9

[14] = test system: Bordetella bronchiseptica ATCC 4617; test: MIC, serial dilutions on solid media; type: cell-based; conditions: ATCC4617, MH II agar, 16 hours at 35° C., inhibitor fractions purified on ion-exchange column
Experimental: as §6, §7, §8, §9

[15] = test system: Proteus vulgaris NCTC 4635; test: MIC, serial dilutions on solid media; type: cell-based; conditions: NCTC4635, MH II agar, 16 hours at 35° C., inhibitor fractions purified on ion-exchange column
Experimental: as §6, §7, §8, §9

[16] = test system: Klebsiella pneumoniae ATCC 13883; test: MIC, serial dilutions on solid media; type: cell-based; conditions: ATCC13883, MH II agar, 16 hours at 35° C., inhibitor fractions purified on ion-exchange column
Experimental: as §6, §7, §8, §9

[17] = test system: Burkholderia cepacia ATCC 25416; test: MIC, serial dilutions on solid media; type: cell-based; conditions: ATCC25416, MH II agar, 16 hours at 35° C., inhibitor fractions purified on ion-exchange column
Experimental: as §6, §7, §8, §9

[18] = test system: Escherichia coli ATCC 25922; test: MIC, serial dilutions on solid media; type: cell-based; conditions: ATCC25922, MH II agar, 16 hours at 35° C., inhibitor fractions purified on ion-exchange column
Experimental: as §6, §7, §8, §9

[19] = test system: Staphylococcus aureus NCTC 4163; test: MIC, serial dilutions on solid media; type: cell-based; conditions: NCTC4163, MH II agar, 16 hours at 35° C., inhibitor fractions purified on ion-exchange column
Experimental: as §6, §7, §8, §9

[20] = test system: Escherichia coli NCTC 8196; test: MIC, serial dilutions on solid media; type: cell-based; conditions: NCTC8196, MH II agar, 16 hours at 35° C., inhibitor fractions purified on ion-exchange column
Experimental: as §6, §7, §8, §9

[21] = test system: Staphylococcus aureus ATCC 6538P; test: MIC, serial dilutions on solid media; type: cell-based; conditions: ATCC6538P, MH II agar, 16 hours at 35° C., inhibitor fractions purified on ion-exchange column
Experimental: as §6, §7, §8, §9

[22] = test system: Enterococcus faecalis ATCC 29219; test: MIC, serial dilutions on solid media; type: cell-based; conditions: ATCC29219, MH II agar, 16 hours at 35° C., inhibitor fractions purified on ion-exchange column
Experimental: as §6, §7, §8, §9

T2 sequence (P39045 50-538): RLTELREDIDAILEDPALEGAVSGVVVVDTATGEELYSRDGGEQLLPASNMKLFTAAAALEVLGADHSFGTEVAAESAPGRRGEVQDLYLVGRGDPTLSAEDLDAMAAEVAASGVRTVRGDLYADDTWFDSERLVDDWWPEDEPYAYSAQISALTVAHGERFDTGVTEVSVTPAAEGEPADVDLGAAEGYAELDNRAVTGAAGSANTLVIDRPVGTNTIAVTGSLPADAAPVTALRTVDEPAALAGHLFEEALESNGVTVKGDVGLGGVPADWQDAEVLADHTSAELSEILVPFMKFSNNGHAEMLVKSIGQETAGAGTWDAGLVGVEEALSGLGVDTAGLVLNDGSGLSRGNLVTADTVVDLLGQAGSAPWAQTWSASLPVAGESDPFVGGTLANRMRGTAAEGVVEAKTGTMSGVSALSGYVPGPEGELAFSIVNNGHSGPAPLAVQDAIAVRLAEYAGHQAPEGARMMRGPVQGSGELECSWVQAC
T1 sequence (P15555 32-380): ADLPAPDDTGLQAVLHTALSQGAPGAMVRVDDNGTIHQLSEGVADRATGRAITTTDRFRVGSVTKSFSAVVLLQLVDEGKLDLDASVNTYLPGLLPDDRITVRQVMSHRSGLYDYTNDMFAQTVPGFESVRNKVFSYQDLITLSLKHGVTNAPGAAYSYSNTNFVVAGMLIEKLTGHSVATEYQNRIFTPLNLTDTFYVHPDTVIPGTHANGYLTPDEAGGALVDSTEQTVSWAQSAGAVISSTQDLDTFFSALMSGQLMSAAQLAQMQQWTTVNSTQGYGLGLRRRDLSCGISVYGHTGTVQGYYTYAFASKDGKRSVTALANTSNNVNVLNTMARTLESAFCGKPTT

## O=C1C=C2CC(C(=O)O)NC=C2C=C1O (stereo not drawn) [inhibitor, 7-hydroxy-6-oxo-2,3,4,6-tetrahydroisochinolin-3-carboxylic acid]
[1]
  IC50: 0.000675 M
[2]
  life of the inhibitor-DD-peptidase R 61 complex: about 33 hours
[3]
  life of the inhibitor-DD-peptidase R 39 complex: 3.5 h
[4]
  inhibition of class A β-lactamase: did not inhibit
[5]; after 15 h
  zone of inhibition at 400 µg/disc: 16 mm
[5]; after 18 h
  zone of inhibition at 400 µg/disc: 15 mm
[6]; after 15 h
  zone of inhibition at 400 µg/disc: 19 mm
[6]; after 18 h
  zone of inhibition at 400 µg/disc: 19 mm
[7]; after 15 h
  zone of inhibition at 400 µg/disc: 20 mm
[7]; after 18 h
  zone of inhibition at 400 µg/disc: 19 mm
[8]
  IC50: 0.00045 M
[9]; 24 h incubation in β-lactamase at room temperature
  stability of DD-peptidase inhibitory activity in the presence of class A β-lactamase: completely stable
[9]; initial incubation with β-lactamase, then DD-peptidase 64-575 II inhibition
  stability in a β-lactamase environment: stable in a β-lactamase environment
[10]
  antifungal activity against Candida albicans ATCC 10231: does not exhibit antifungal activity
[11]; PBS pH 7.2-8.0
  solubility in PBS pH 7.2-8.0: soluble
[11]; aqueous, low levels of K+, Na+
  solubility in an aqueous environment with low levels of K+, Na+: soluble
[11]; ethyl acetate, methylene chloride, chloroform, amyl acetate, acetonitrile
  solubility in ethyl acetate, methylene chloride, chloroform, amyl acetate, acetonitrile: not soluble
[11]; methanol, DMSO
  solubility in methanol, DMSO: dissolves
  stability in methanol, DMSO: degrades
[12]
  MIC: > 200 µg/mL
[13]
  MIC: 200 µg/mL (≈ 965 µM)
[14]
  MIC: 200 µg/mL (≈ 965 µM)
[15]
  MIC: 200 µg/mL (≈ 965 µM)
[16]
  MIC: > 200 µg/mL
[17]
  MIC: > 200 µg/mL
[18]
  MIC: > 200 µg/mL
[19]
  MIC: > 200 µg/mL
[20]
  MIC: > 200 µg/mL
[21]
  MIC: > 200 µg/mL
[22]
  MIC: > 200 µg/mL
